Assay results from paper PMC12796071, “Evaluation of [^18F]MNI-1054, a novel PET ligand for lysine-specific histone demethylase 1A (LSD1), in non-human primates” (EJNMMI Research, 2025).
Values joined by “and” are separate entries in the source; they are usually repeats but may differ in a detail not shown here. Equal entries are not always repeated. “Also recorded” adds a separate entry of the source.

Legend:
[1] = target: T1, LSD1 (Macaca mulatta, UniProt I2CUD2); assay: PET imaging of the testes (baseline and TAK-418 blocking); settings: TAK-418 3.0 mg/kg iv 120 min before tracer, M3
Protocol: TAK-418 (3 mg/kg) was administered as an intravenous bolus over 5-min, starting 120 min prior to [^18F]MNI-1054 administration.

[2] = target: T1, LSD1; assay: LSD1 enzyme occupancy in brain from [18F]MNI-1054 PET blocking, self-block and repopulation studies; assay type: in vivo, rhesus monkeys (macaca mulatta); parameters: from tissue; host or cells: brain of living rhesus monkeys (M1, M2), in vivo PET; settings: for Occupancy: from Ki
Protocol: M1 and M2 each completed a scan at baseline to assess brain penetration and kinetics and to serve as reference for the blocking and displacement studies. A self-block study with cold 3 mg/kg MNI-1054, starting 5 min prior to [^18F]MNI-1054 administration, was conducted in M1 to assess regional differences in non-specific binding.
Blocking studies with the LSD1 inhibitor TAK-418 ([…]) were performed to measure the dose-occupancy relationship for this compound. For blocking studies, TAK-418 was administered intravenously 2 h prior to [^18F]MNI-1054. Prior to conducting these blocking studies, a displacement study with TAK-418 (3 mg/kg) was performed to confirm irreversible tracer binding, in which TAK-418 was administered 1.5 h post [^18F]MNI-1054 administration. For all studies involving TAK-418, the test article was administered intravenously over 5 min. Due to the irreversible binding of these compounds to LSD1, the time taken for the enzyme to re-populate was investigated by imaging one animal (M2) with [^18F]MNI-1054 at 24 and 48 h post TAK-418 treatment (0.3 mg/kg). Each animal also underwent a high-resolution T1-weighted structural brain MRI scan with a 3-D MPRAGE sequence on a separate day for anatomical reference.
Regional occupancy due to TAK-418 or unlabeled MNI-1054 as measured with [^18F]MNI-1054 was computed as the percent change relative to the baseline value of Ki, i.e. where the drug was either TAK-418 or MNI-1054. An Emax model with maximum occupancy constrained to a value less than 100% was fitted to the dose-occupancy plot to estimate Omax (maximal occupancy) and ED50 [mg/kg] representing the injected TAK-418 dose yielding 50% LSD1 occupancy.

[3] = TAK-418 plasma concentration after 5-minute intravenous bolus; assay type: in vivo, rhesus monkeys (macaca mulatta); settings: 0.3 mg/kg iv
[4] = cerebellum, TAK-418 iv 2 h before tracer

- occupancy in the testes ([1]; from fractional changes in a parameter other than Ki): 94.4%
- Occupancy based on fractional changes in k3 ([2]; cerebellum, TAK-418 0.005 mg/kg, 2 h post-dose): 2.4%
- Occupancy ([2]; cerebellum, TAK-418 0.005 mg/kg, 2 h post-dose, M2): −21.3%
- [18F]MNI-1054 Ki 2 h post-dose ([2]; cerebellum, TAK-418 0.005 mg/kg, M2): 0.057 mL/cm^3/min
- Occupancy ([2]; cerebellum, TAK-418 0.01 mg/kg, 2 h post-dose, M1): 47.3%
- [18F]MNI-1054 Ki 2 h post-dose ([2]; cerebellum, TAK-418 0.01 mg/kg, M1): 0.030 mL/cm^3/min
- Occupancy ([2]; cerebellum, TAK-418 0.03 mg/kg, 2 h post-dose, M2): 62.5%
- [18F]MNI-1054 Ki 2 h post-dose ([2]; cerebellum, TAK-418 0.03 mg/kg, M2): 0.017 mL/cm^3/min
- Occupancy ([2]; cerebellum, TAK-418 0.3 mg/kg, 2 h post-dose, M1): 89.9%
- LSD1 enzyme occupancy ([2]; cerebellum, TAK-418 0.3 mg/kg, 24 h post-dose, M2): 29.8%
- [18F]MNI-1054 Ki 2 h post-dose ([2]; cerebellum, TAK-418 0.3 mg/kg, M1): 0.006 mL/cm^3/min
- half-life for occupancy to decrease to zero (proxy for LSD1 enzyme repopulation) ([2]; cerebellum, TAK-418 0.3 mg/kg, exponential fit to 2, 24 and 48 h occupancy): 12.28 h
- Occupancy ([2]; cerebellum, TAK-418 3 mg/kg, 2 h post-dose, M1, 3 mg/kg): 90.1%
- [18F]MNI-1054 Ki 2 h post-dose ([2]; cerebellum, TAK-418 3 mg/kg, M1): 0.005 mL/cm^3/min
- ED50 (Emax model fit) [2, 4]: 0.0224 mg/kg and ~ 0.0224 mg/kg
- Omax (Emax model fit) [2, 4]: 95.6%
- ED50 (Emax model fit) ([2]; occipital cortex): 0.0279 mg/kg and ~ 0.0279 mg/kg
- Omax (Emax model fit) ([2]; occipital cortex): 77.3%
- ED50 (Emax model fit) ([2]; pons): 0.046 mg/kg
- Omax (Emax model fit) ([2]; pons): 73.3%
- plasma concentration as percent of its peak value ([3]; after 5 h): 0.45%
Compound: O=C(NC1CCOCC1)c1csc([C@@H]2C[C@H]2NCC2CC2)c1 [TAK-418]
- signal blockade in the testes ([1]; compared with control leg muscle, 3 mg/kg): significant signal blockade; also recorded: substantial reduction
- TAK-418 levels in plasma ([3]; 24 and 48 hours post-dose, M2): no detectable levels; also recorded: below the level of detection
